From ChEMBL document CHEMBL1156203, “Synthesis and evaluation of alkenyl indazoles as selective Aurora kinase inhibitors” (Bioorg Med Chem Lett, 2010)

How the values were obtained:
[1] = Selectivity ratio of IC50 for recombinant Aurora A to IC50 for recombinant Aurora B
[2] = molecular target: Aurora kinase B (Homo sapiens, UniProt Q96GD4); test: Inhibition of GST tagged recombinant Aurora B expressed in Hi-5 cells after 1 hr by TRF assay
[3] = molecular target: T1, Aurora kinase A (Homo sapiens, UniProt O14965); test: Inhibition of hexahistidine tagged recombinant Aurora A expressed in Hi-5 cells assessed as ATP remaining after 2 hrs by bioluminescence
T1 sequence (O14965 whole entry): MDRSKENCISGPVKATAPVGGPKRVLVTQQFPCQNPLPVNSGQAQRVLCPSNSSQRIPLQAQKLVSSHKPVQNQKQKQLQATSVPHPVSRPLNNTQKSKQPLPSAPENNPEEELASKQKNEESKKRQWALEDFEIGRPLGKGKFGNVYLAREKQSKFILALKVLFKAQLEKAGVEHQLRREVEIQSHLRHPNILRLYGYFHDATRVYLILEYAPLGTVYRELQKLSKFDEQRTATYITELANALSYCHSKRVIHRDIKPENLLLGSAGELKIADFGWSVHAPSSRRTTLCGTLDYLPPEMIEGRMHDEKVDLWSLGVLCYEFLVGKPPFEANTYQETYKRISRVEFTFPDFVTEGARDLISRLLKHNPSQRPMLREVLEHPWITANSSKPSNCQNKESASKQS

Sequence of Aurora kinase B (Q96GD4 whole entry): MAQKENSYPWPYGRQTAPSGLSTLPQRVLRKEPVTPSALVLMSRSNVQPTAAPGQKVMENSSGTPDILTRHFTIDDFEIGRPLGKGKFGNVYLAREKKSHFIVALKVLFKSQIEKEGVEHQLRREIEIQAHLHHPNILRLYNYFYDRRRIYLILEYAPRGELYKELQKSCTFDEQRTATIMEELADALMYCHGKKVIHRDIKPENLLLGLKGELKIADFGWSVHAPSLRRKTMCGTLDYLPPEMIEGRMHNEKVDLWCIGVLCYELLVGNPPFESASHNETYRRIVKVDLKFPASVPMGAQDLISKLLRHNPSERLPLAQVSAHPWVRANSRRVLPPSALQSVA

Row | Ratio IC50 [1] | IC50 [2] [nM] | IC50 [3] [nM] | Compound
1 | 19 | 99 | 1900 | Cc1c(NC(=O)Cc2cccs2)ccc2[nH]nc(/C=C/c3cccc(CN4CCN(C)CC4)c3)c12
2 |  |  | 19 | Cc1cc2[nH]nc(/C=C/c3ccccc3)c2cc1NC(=O)Cc1ccccc1
3 | 1.1 | 31 | 35 | O=S(=O)(Cc1ccccc1)Nc1ccc2[nH]nc(/C=C/c3ccccc3)c2c1
4 | 2.5 | 81 | 200 | Nc1cc2c(/C=C/c3ccccc3)n[nH]c2cc1N1CCCC1
5 | 1.3 | 26 | 35 | CN1CCN(Cc2cccc(/C=C/c3n[nH]c4ccc(NC(=O)Cc5cccs5)cc34)c2)CC1
6 | 3.5 | 46 | 160 | C(=C\c1n[nH]c2cc(N3CCCC3)c(-c3ccncc3)cc12)/c1ccccc1
7 | 0.23 | 180 | 42 | COc1ccc(OC)c(CC(=O)Nc2cc3c(/C=C/c4ccccc4)n[nH]c3cc2C)c1
8 |  |  | 1700 | O=C(Cc1ccccc1)Nc1ccc2[nH]nc(CCc3ccccc3)c2c1
9 | 5 | 130 | 620 | C(=C\c1n[nH]c2cc(N3CCCC3)c(NCc3ccccn3)cc12)/c1ccccc1
10 | 0.8 | 110 | 91 | O=C(Cc1cccs1)Nc1cc2c(/C=C/c3ccccc3)n[nH]c2cc1N1CCCC1
11 | 2.3 | 62 | 140 | CN1CCN(C(=O)Nc2cccc(/C=C/c3n[nH]c4cc(N5CCCC5)c(NS(C)(=O)=O)cc34)c2)CC1
12 |  | 47 | 17 | Cc1cc2[nH]nc(/C=C/c3ccccc3)c2cc1NC(=O)Cc1cccs1
13 | 0.6 | 130 | 79 | Cc1cc2[nH]nc(/C=C/c3cccc(CN4CCN(C)CC4)c3)c2cc1NC(=O)Cc1cccs1
14 | 4.7 | 59 | 280 | Cc1c(C#N)ccc2[nH]nc(/C=C/c3cccc(CN4CCN(C)CC4)c3)c12
15 | 2.2 | 110 | 240 | O=[N+]([O-])c1cc2c(/C=C/c3ccccc3)n[nH]c2cc1N1CCCC1
16 | > 12 | 810 | > 10000 | CN1CCN(c2cc3[nH]nc(/C=C/c4ccccc4)c3cc2NCc2ccccn2)CC1
17 | 0.28 | 46 | 13 | Cc1cc2[nH]nc(/C=C/c3cccc(NC(=O)N4CCN(C)CC4)c3)c2cc1NC(=O)Cc1cccs1
18 | 11.3 | 31 | 350 | Cc1cc(N)cc(-c2ccc3[nH]nc(/C=C/c4cccc(CN5CCN(C)CC5)c4)c3c2C)c1
19 |  | 1640 | 640 | O=C(Cc1ccccc1)Nc1ccc2[nH]nc(C3CC3c3ccccc3)c2c1 (centres undefined)
20 |  | 110 | 240 | Cc1cc2[nH]nc(C#Cc3ccccc3)c2cc1NC(=O)Cc1cccs1
21 |  |  | 22 | O=C(Cc1ccccc1)Nc1ccc2[nH]nc(/C=C/c3ccccc3)c2c1
